The record followed here is ChEMBL document CHEMBL1770096, “Structure-activity relationships of trans-substituted-propenoic acid derivatives on the nicotinic acid receptor HCA2 (GPR109A)” (Bioorg Med Chem Lett, 2011).

This test deals with Hydroxycarboxylic acid receptor 2 (Homo sapiens) (UniProt Q8TDS4). In words: Displacement of [3H]nicotinic acid from human GPR109a receptor expressed in human HEK293T cells at 10 uM by liquid scintillation counting. The test is classed as cell-based. To be noted: HEK-293T. On the technique in general: Displacement assays read how much labelled ligand stays bound in the presence of the test substance.
Chain of Hydroxycarboxylic acid receptor 2 (Homo sapiens) (Q8TDS4 whole entry): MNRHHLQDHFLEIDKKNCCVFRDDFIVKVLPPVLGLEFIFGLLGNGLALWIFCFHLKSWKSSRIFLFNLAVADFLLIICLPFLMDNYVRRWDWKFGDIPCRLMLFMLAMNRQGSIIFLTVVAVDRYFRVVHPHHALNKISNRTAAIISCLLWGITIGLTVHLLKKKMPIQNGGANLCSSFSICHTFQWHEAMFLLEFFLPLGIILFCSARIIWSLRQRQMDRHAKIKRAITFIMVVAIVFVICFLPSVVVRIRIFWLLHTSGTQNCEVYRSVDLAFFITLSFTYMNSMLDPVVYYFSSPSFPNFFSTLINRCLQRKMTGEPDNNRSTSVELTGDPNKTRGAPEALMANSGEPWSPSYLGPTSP

With `COc1cc(/C=C/C(=O)O)ccc1O`, the Activity came to 0%. `O=C(O)/C=C/C(=O)O` registered an Activity of 10%.
